The values that follow come from patent US5621113A, “4-[(thien-2-yl)methyl]-imidazole analgesics” (priority 1996, dated 1997).

Counter-ions that a name gives are not always drawn. Like-named read-outs stand apart in the source and are kept apart here.

For test [1], the system named is acetylcholine bromide-induced abdominal constriction response. Put plainly: Mouse Acetylcholine Bromide-Induced Abdominal Constriction Assay. Type of test: in vivo. The note with it: for inhibition in vivo at 30 mg/kg / ED50: Mus musculus; for inhibition in vivo at 30 mg/kg: po; for ED50: 0.5 h, oral, 30 minutes before acetylcholine bromide 5.5 mg/kg i.p., dose producing 50% analgesia. On the procedure:
Mouse Acetylcholine Bromide-Induced Abdominal Constriction Assay
The mouse acetylcholine bromide-induced abdominal constriction assay, as described by Collier et al. in Brit. J. Pharmacol. Chem. Ther., 32: 295-310, 1968, with minor modifications was used to assess analgesic potency of the compounds herein. The test drugs or appropriate vehicle were administered orally (p.o.) and 30 minutes later the animal received an intraperitoneal (i.p.) injection of 5.5 mg/kg acetylcholine bromide (Matheson, Coleman and Bell, East Rutherford, N.J.). The mice were then placed in groups of three into glass bell jars and observed for a ten minute observation period for the occurrence of an abdominal constriction response (defined as a wave of constriction and elongation passing caudally along the abdominal wall, accompanied by a twisting of the trunk and followed by extension of the hind limbs). The percent inhibition of this response to a nociceptive stimulus (equated to % analgesia) was calculated as follows: The % Inhibition of response, i.e., % analgesia is equal to the difference between the number of control animals response and the number of drug-treated animals response times 100 divided by the number of control animals responding.
At least 15 animals were used for control and in each of the drug treated groups. At least three doses were used to determine each dose response curve and ED50 (that dose which would produce 50% analgesia). The ED50 values and their 95% fiducial limits were determined by a computer assisted probit analysis.

The target of test [2] is T1, Alpha2D adrenergic receptor (Rattus norvegicus, UniProt P22909).
T1 construct: The cortex is dissected out and homogenized in 20 volumes of HEPES sucrose; from tissue; host or cells: rat brain cortex, synaptic membrane fraction (male Wistar rats, Charles River)
T1 sequence (P22909 1-465): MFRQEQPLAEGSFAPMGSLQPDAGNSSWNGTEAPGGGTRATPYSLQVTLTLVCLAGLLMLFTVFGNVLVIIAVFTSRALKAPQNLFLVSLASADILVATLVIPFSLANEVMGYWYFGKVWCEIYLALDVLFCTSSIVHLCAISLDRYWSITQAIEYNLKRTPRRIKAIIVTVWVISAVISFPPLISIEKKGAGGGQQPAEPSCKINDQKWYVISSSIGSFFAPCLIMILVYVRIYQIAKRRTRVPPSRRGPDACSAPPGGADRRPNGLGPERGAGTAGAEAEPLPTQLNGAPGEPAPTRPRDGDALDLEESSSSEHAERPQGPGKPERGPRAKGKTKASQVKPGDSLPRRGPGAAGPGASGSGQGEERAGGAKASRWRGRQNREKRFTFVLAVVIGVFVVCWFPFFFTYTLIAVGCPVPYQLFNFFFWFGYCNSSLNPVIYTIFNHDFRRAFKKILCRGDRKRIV
The test is described as follows: Alpha2D adrenergic receptor binding assay (3H-para-aminoclonidine, rat cortex synaptic membranes). Further details: species or system rat (male Wistar). On the procedure:
Alpha2D adrenergic receptor binding assay
Male, Wistar rats (150-250 g, VAF, Charles River, Kingston, N.Y.) are sacrificed by cervical dislocation and their brains removed and placed immediately in ice cold HEPES buffered sucrose. The cortex is dissected out and homogenized in 20 volumes of HEPES sucrose in a Teflon®-glass homogenizer. The homogenate is centrifuged at 1000 g for 10 min, and the resulting supernatant centrifuged at 42,000 g for 10 min. The resulting pellet is resuspended in 30 volumes of 3 mM potassium phosphate buffer, pH 7.5, preincubated at 25° C. for 30 min and recentrifuged. The resulting pellet is resuspended as described above and used for the receptor binding assay. Incubation is performed in test tubes containing phosphate buffer, 2.5 mM MgCl2, aliquots of the synaptic membrane fraction, the ligand ^3 H-para-aminoclonidine and test drug at 25° C. for 20 min. The incubation is terminated by filtration of the tube contents through glass fiber filter sheets. Following washing of the sheets with 10 mM HEPES buffer, the adhering radioactivity is quantified by liquid scintillation spectrometry.
Binding of the test drug to the receptor is determined by comparing the amount of radiolabeled ligand bound in control tubes without drug to the amount of radiolabeled ligand bound in the presence of the drug. Dose-response data are analyzed with LIGAND, a nonlinear curve fitting program designed specifically for the analysis of ligand binding data. This assay is described by Simmons, R. M. A., and Jones, D. J., Binding of [^3 H-]prazosin and [^3 H-]p-aminoclonidine to α-Adrenoceptors in Rat Spinal Cord, Brain Research 445:338-349, 1988.

Setting [3] is: @ 30 mpk (route not given; method: orally).
[4] abbreviates: displacement of 3H-para-aminoclonidine, rat cortex membranes, 25° C., 20 min, read-out: Ki.

As usually defined, the inhibition in vivo is the drop in the measured response relative to a control, in per cent. Usually Ki stands for a measure of affinity in units of concentration, obtained from inhibition or displacement. By ED50 is commonly meant the dose at which the effect has come halfway, by size or by number of responders.

For `Cc1ccc(Cc2c[nH]cn2)s1` [reference compound], the inhibition in vivo at 30 mg/kg in test [1] (setting [3]) was 33%. The affinity in test [2], expressed as Ki, was 3.6 nM.
The compound `Brc1ccsc1Cc1c[nH]cn1.Cl` [Cp-3, 4-[(3-Bromothien-2-yl)methyl]-1H-imidazole Hydrochloride] yielded an ED50 in test [1] of 1.7 mg/kg. The same compound came in with a Ki in test [2] of 0.35 nM.
For `Cc1ccsc1C(C)c1c[nH]cn1.Cl` (stereo not shown) [Cp-2, 4-[1-(3-methylthien-2-yl)ethyl]-1H-imidazole hydrochloride], in that order: 1.4 mg/kg and 2.1 nM.
`Cc1csc(Cc2c[nH]cn2)c1C` [Cp-5, 4-[(3,4-dimethylthien-2-yl)methyl]-1H-imidazole hydrochloride] gave an inhibition in vivo at 30 mg/kg in test [1] (@ 30 mpk/po) of 100%. The same compound yielded a Ki in test [2] of 0.17 nM.
With `c1csc(Cc2c[nH]cn2)c1` [reference compound], the inhibition in vivo at 30 mg/kg in test [1] (setting [3]) was 60%. In test [2], this compound showed a Ki of 8.7 nM.
Compound `CC(c1c[nH]cn1)c1sccc1Br.Cl` (stereo not shown) [Cp-4, 4-[1-(3-Bromothien-2-yl)-ethyl]-1H-imidazole Hydrochloride] returned an ED50 in test [1] of 2.1 mg/kg. This compound yielded a Ki in test [2] of 0.96 nM.
In turn, `Brc1csc(Cc2c[nH]cn2)c1Br` [Cp-7, 4-[-(3,4-dibromothien-2-yl)methyl]-1H-imidazole fumarate] yielded an inhibition in vivo at 30 mg/kg in test [1] (@ 30 mpk/po) of 80%. The compound also gave a Ki in test [2] of 0.43 nM.
The like results for `Brc1csc(Cc2c[nH]cn2)c1` [Cp-9, 4-[-(4-Bromothien-2-yl)methyl]1H-imidazole Hydrochloride] were, in that order, 80% and 1.4 nM.
For the compound `CCC(c1c[nH]cn1)c1sccc1C` (stereo not shown) [reference compound], the inhibition in vivo at 30 mg/kg in test [1] (setting [3]) was found to be 100%. In addition, in test [2], the Ki amounted to 8.3 nM.
With `CC(c1c[nH]cn1)c1scc(Br)c1Br` (stereo not shown) [Cp-8, 4-[(3,4-dibromothien-2-yl)ethyl]-1H-imidazole fumarate], the ED50 in test [1] is 5.7 mg/kg. Further, in test [2], the Ki came out at 0.07 nM.
The compound `Cc1csc(C(C)c2c[nH]cn2)c1C` (stereo not shown) [Cp-6, 4-[-(3,4-Dimethylthien-2-yl)ethyl]-1H-imidazole Fumarate] returned an inhibition in vivo at 30 mg/kg in test [1] (@ 30 mpk/po) of 87%. Besides, the Ki in test [2] amounted to 0.75 nM.
Compound `Cc1ccsc1Cc1c[nH]cn1.Cl` [Cp-1, 4-[(3-Methylthien-2-yl)methyl]-1H-imidazole Hydrochloride] registered an ED50 in test [1] of 0.94 mg/kg. In test [2], the affinity corresponds to a Ki of 0.45 nM.
With `CC(C)=C(c1c[nH]cn1)c1sccc1C` [drawing 24, reference compound], in test [1] (setting [3]), the “Mouse Abdominal Constriction % Inhibition” value worked out at 47%. For the same compound, the inhibition constant (Ki) in test [2] (setting [4]) was found to be 335 nM.
As to `CC(C)=C(c1c[nH]cn1)c1sccc1C` [drawing 25, reference compound], the “Mouse Abdominal Constriction % Inhibition” value in test [1] (setting [3]) is given as 73%. In addition, the Ki in test [2] (setting [4]) stood at 1000 nM.
